Experimental data reported in ChEMBL document CHEMBL1132789, “Synthesis and estrogen receptor binding affinities of novel pyrrolo[2,1,5-cd]indolizine derivatives” (Bioorg Med Chem Lett, 2000).

target: Estrogen receptor (Homo sapiens, UniProt Q92731+P03372)
Description: Inhibitory activity against Estrogen receptor by displacement of [3H]17-beta-estradiol in ER-rich cytosol from rabbit uterine tissue

IC50 | SMILES
180 nM | CCc1c(-c2ccccc2)c2ccc3c(O)ccc1n32
5 nM | CCCc1c(-c2ccc(O)cc2)c2ccc3cccc1n32
9.5 nM | CCc1c(-c2ccc(O)cc2)c2ccc3cccc1n32
28 nM | Cc1c(-c2ccc(O)cc2)c2ccc3cccc1n32
700 nM | Oc1ccc(-c2cc3cccc4ccc2n43)cc1
8 nM | CC(C)c1c(-c2ccc(O)cc2)c2ccc3cccc1n32
12 nM | CCc1c(-c2ccc(O)cc2)c2ccc3ccc(CO)c1n32
1300 nM | CCc1c(-c2ccccc2)c2ccc3cc(O)cc1n32
950 nM | CCCC(C)C1C(c2ccc(O)cc2)=c2ccc3n2C1C=CC=3 (stereo unspecified)
0.9 nM | CCc1c(-c2ccc(O)cc2)c2ccc3cc(O)cc1n32
370 nM | CCc1c(-c2cccc(O)c2)c2ccc3cccc1n32

SMILES | IC50
Oc1ccc(C2=c3ccc4n3C3C(=CC=4)CCCC23)cc1 (stereo unspecified) | 30 nM
CCc1c(-c2ccc(O)cc2)c2ccc3c(O)ccc1n32 | 0.9 nM
CCCCC1C(c2ccc(O)cc2)=c2ccc3n2C1C=CC=3 (stereo unspecified) | 200 nM
Oc1ccc(C2=c3ccc4n3C3C(=CC=4)CCCCC23)cc1 (stereo unspecified) | 25 nM
Oc1ccc(C2=c3ccc4n3C(C=CC=4)C2CCc2ccccc2)cc1 (stereo unspecified) | 180 nM
